Results: US11147272B2, “Pyridone compounds and agricultural and horticultural fungicides comprising the same as active ingredients” (MITSUI CHEMICALS AGRO, INC., priority 2017, dated 2021)

What was measured:
Botrytis cinerea = assay: Test Example B: Gray mold on tomato; conditions: Gray mold on tomato; control value class
Plasmopara viticola = assay: Test Example G: Downy mildew on vine; conditions: Downy mildew on vine; 250 ppm spray, 7 to 10 days after inoculation
Phytophthora infestans = assay: whole plant or invertebrate; assay type: in vivo; conditions: Late blight on tomato; control value class
[1] = system: Blumeria graminis f. sp. hordei; assay: Test Example D: Powdery mildew on barley; conditions: Powdery mildew on barley; control value class
Puccinia recondita = assay: Test Example E: Brown rust on wheat; assay type: in vivo; conditions: Brown rust on wheat; control value class
Magnaporthe grisea = assay: whole plant or invertebrate; assay type: in vivo; conditions: Blast on rice; control value class
Alternaia brassicicola = assay: Test Example C: Alternaria sooty spot on cabbage; assay type: in vivo; conditions: Alternaria sooty spot on cabbage; control value class
Description: Seeds of a test plant (cabbage variety: Shikidori) were planted and cultivated until the cotyledons extended.
<Control Value> Control value=100{1−(n/3)}

[2] = system: Colletotrichum orbiculare; assay: Test Example H: Anthracnose on cucumber; conditions: Anthracnose on cucumber; 250 ppm spray, 6 to 10 days after inoculation

Row | SMILES | Test B control value (Botrytis cinerea) | Test G control value (Plasmopara viticola) | Test F control value (Phytophthora infestans) | Test D control value [1] | Test E control value (Puccinia recondita) | Test A control value (Magnaporthe grisea) | Test C control value (Alternaia brassicicola) | Test H control value [2]
1 | CCOc1cc(F)c(-c2c(C(C)(O)C(C)C)cc(Cl)c(=O)n2CC)c(F)c1 (stereo not shown) [compound 226] | H (more than 50% control value) | L (50% or less control value) | L (50% or less control value) | L (50% or less control value) | H (more than 50% control value) | H (more than 50% control value) | H (more than 50% control value) | H (more than 50% control value)
2 | CCOc1cc(F)c(-c2c(C(C)(OC)C(C)C)cc(Cl)c(=O)n2CC)c(F)c1 (stereo not shown) [compound 227] | H (more than 50% control value) | H (more than 50% control value) | L (50% or less control value) | H (more than 50% control value) | H (more than 50% control value) | H (more than 50% control value) | H (more than 50% control value) | H (more than 50% control value)
3 | CCOC(C)(c1cc(Cl)c(=O)n(CC)c1-c1c(F)cc(F)cc1F)C(C)C (stereo not shown) [compound 228] | H (more than 50% control value) | H (more than 50% control value) | L (50% or less control value) | H (more than 50% control value) | H (more than 50% control value) | H (more than 50% control value) | H (more than 50% control value) | H (more than 50% control value)
4 | CCCOC(C)(c1cc(Cl)c(=O)n(CC)c1-c1c(F)cc(F)cc1F)C(C)C (stereo not shown) [compound 229] | H (more than 50% control value) | H (more than 50% control value) | L (50% or less control value) | H (more than 50% control value) | H (more than 50% control value) | H (more than 50% control value) | H (more than 50% control value) | H (more than 50% control value)
5 | CCn1c(-c2c(F)cc(F)cc2F)c(C#N)cc(Cl)c1=O [compound 230] | L (50% or less control value) | H (more than 50% control value) | L (50% or less control value) | L (50% or less control value) | L (50% or less control value) | L (50% or less control value) | L (50% or less control value) | L (50% or less control value)
6 | CCn1c(-c2c(F)cc(F)cc2F)c(C(O)C2CCCC2)cc(Cl)c1=O (stereo not shown) [compound 231] | H (more than 50% control value) | H (more than 50% control value) | H (more than 50% control value) | H (more than 50% control value) | H (more than 50% control value) | H (more than 50% control value) | H (more than 50% control value) | H (more than 50% control value)
7 | CCn1c(-c2c(F)cc(F)cc2F)c(C(=O)C2CCCC2)cc(Cl)c1=O [compound 232] | H (more than 50% control value) | L (50% or less control value) | L (50% or less control value) | H (more than 50% control value) | H (more than 50% control value) | H (more than 50% control value) | H (more than 50% control value) | L (50% or less control value)
8 | CCn1c(-c2ccc(C#N)cc2)c(C(O)C(C)C)cc(Cl)c1=O (stereo not shown) [compound 233] | L (50% or less control value) | L (50% or less control value) | L (50% or less control value) | L (50% or less control value) | L (50% or less control value) | L (50% or less control value) | H (more than 50% control value) | L (50% or less control value)
9 | CCn1c(-c2ccc(C#N)cc2)c(C(=O)C(C)C)cc(Cl)c1=O [compound 234] | L (50% or less control value) | L (50% or less control value) | L (50% or less control value) | L (50% or less control value) | L (50% or less control value) | L (50% or less control value) | H (more than 50% control value) | L (50% or less control value)
10 | CCn1c(-c2ccc(C#N)cc2)c(C(C)(O)C(C)C)cc(Cl)c1=O (stereo not shown) [compound 235] | L (50% or less control value) | L (50% or less control value) | L (50% or less control value) | L (50% or less control value) | H (more than 50% control value) | L (50% or less control value) | H (more than 50% control value) | L (50% or less control value)
11 | CCn1c(-c2ccc(Br)cc2Cl)c(CC(C)C)cc(Cl)c1=O [compound 236] | H (more than 50% control value) | L (50% or less control value) | L (50% or less control value) | H (more than 50% control value) | H (more than 50% control value) | H (more than 50% control value) | H (more than 50% control value) | L (50% or less control value)
12 | CCn1c(-c2ccc(Br)cc2Cl)c(CC(C)C)cc(Br)c1=O [compound 237] | H (more than 50% control value) | L (50% or less control value) | L (50% or less control value) | H (more than 50% control value) | H (more than 50% control value) | L (50% or less control value) | H (more than 50% control value) | L (50% or less control value)
13 | CCn1c(-c2ccc(OC)cc2Cl)c(CC(C)C)ccc1=O [compound 238] | H (more than 50% control value) | H (more than 50% control value) | L (50% or less control value) | H (more than 50% control value) | H (more than 50% control value) | H (more than 50% control value) | H (more than 50% control value) | H (more than 50% control value)
14 | CCn1c(-c2ccc(OC)cc2Cl)c(CC(C)C)cc(Cl)c1=O [compound 239] | H (more than 50% control value) | L (50% or less control value) | L (50% or less control value) | H (more than 50% control value) | H (more than 50% control value) | H (more than 50% control value) | H (more than 50% control value) | H (more than 50% control value)
15 | CCn1c(-c2ccc(OC)cc2Cl)c(CC(C)C)cc(Br)c1=O [compound 240] | H (more than 50% control value) | H (more than 50% control value) | L (50% or less control value) | H (more than 50% control value) | H (more than 50% control value) | H (more than 50% control value) | H (more than 50% control value) | H (more than 50% control value)
16 | CCOC(C)(c1cc(Cl)c(=O)n(CC)c1-c1c(F)cc(OC)cc1F)C(C)C (stereo not shown) [compound 241] | H (more than 50% control value) | L (50% or less control value) | L (50% or less control value) | H (more than 50% control value) | H (more than 50% control value) | H (more than 50% control value) | H (more than 50% control value) | H (more than 50% control value)
17 | CCCOC(C)(c1cc(Cl)c(=O)n(CC)c1-c1c(F)cc(OC)cc1F)C(C)C (stereo not shown) [compound 242] | L (50% or less control value) | L (50% or less control value) | L (50% or less control value) | L (50% or less control value) | L (50% or less control value) | L (50% or less control value) | H (more than 50% control value) | L (50% or less control value)
